Measurements published in patent US11053204B2, “Pyrimidinyloxy benzene derivatives as herbicides” (FMC Corporation, priority 2015, dated 2021).

Legend:
Format in all cases: in vivo
[1] = test system: ducksalad (Heteranthera limosa); experiment: Test B flooded paddy test, plant response rating; conditions: Heteranthera limosa, 312 h; 250 g ai/ha; Flood; scale of 0 to 100 where 0 is no effect and 100 is complete control; 13 to 15 days
In short: (§1)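 Ratings were visual and made relative to untreated controls after 13 to 15 greenhouse days.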

rice (Oryza sativa) = experiment: Test B flooded paddy test, plant response rating; conditions: Oryza sativa, 312 h; 250 g ai/ha; Flood; scale of 0 to 100 where 0 is no effect and 100 is complete control; 13 to 15 days
In short: as §1

[2] = test system: sedge, umbrella (small-flower umbrella sedge, Cyperus difformis); experiment: Test B flooded paddy test, plant response rating; conditions: Cyperus difformis, 312 h; 250 g ai/ha; Flood; scale of 0 to 100 where 0 is no effect and 100 is complete control; 13 to 15 days
In short: as §1

[3] = test system: blackgrass (Alopecurus myosuroides); experiment: Test C preemergence, plant response rating; conditions: Alopecurus myosuroides, pre-emergence, Preemergence
In short: (§2)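 Visual injury score, 0 = no effect, 100 = complete control, assigned against untreated controls after 13 to 15 d in the greenhouse. Compounds were applied in a surfactant-containing non-phytotoxic solvent mix, preemergence to seeded loam/sand or silt loam soil, or postemergence to 1- to 4-leaf plants (2 to 18 cm).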

corn (Zea mays) = experiment: Test C preemergence, plant response rating; conditions: Zea mays, pre-emergence, Preemergence
In short: as §2

[4] = test system: crabgrass, large (large crabgrass, Digitaria sanguinalis); experiment: Test C preemergence, plant response rating; conditions: Digitaria sanguinalis, pre-emergence, Preemergence
In short: as §2

[5] = test system: foxtail, giant (giant foxtail, Setaria faberii); experiment: Test C preemergence, plant response rating; conditions: Setaria faberi, pre-emergence, Preemergence
In short: as §2

[6] = test system: lambsquarters (Chenopodium album); experiment: Test C preemergence, plant response rating; conditions: Chenopodium album, pre-emergence, Preemergence
In short: as §2

[7] = test system: morningglory (Ipomoea coccinea); experiment: Test C preemergence, plant response rating; conditions: Ipomoea, pre-emergence, Preemergence
In short: as §2

[8] = test system: nutsedge, yellow (yellow nutsedge, Cyperus esculentus); experiment: Test C preemergence, plant response rating; conditions: Cyperus, pre-emergence, Preemergence
In short: as §2

[9] = test system: oilseed rape (Brassica napus); experiment: Test C preemergence, plant response rating; conditions: Brassica napus, pre-emergence, Preemergence
In short: as §2

[10] = test system: ragweed (common ragweed, Ambrosia elatior); experiment: Test C preemergence, plant response rating; conditions: Ambrosia artemisiifolia, pre-emergence, Preemergence
In short: as §2

[11] = test system: ryegrass, Italian (Italian ryegrass, Lolium multiflorum); experiment: Test C preemergence, plant response rating; conditions: Lolium multiflorum, pre-emergence, Preemergence
In short: as §2

soybean (Glycine max) = experiment: Test C preemergence, plant response rating; conditions: Glycine max, pre-emergence, Preemergence
In short: as §2

[12] = test system: velvetleaf (Abutilon theophrasti); experiment: Test C preemergence, plant response rating; conditions: Abutilon theophrasti, pre-emergence, Preemergence
In short: as §2

[13] = test system: waterhemp (common waterhemp, Amaranthus rudis); experiment: Test C preemergence, plant response rating; conditions: Amaranthus tuberculatus, pre-emergence, Preemergence
In short: as §2

[14] = test system: wheat (winter wheat, Triticum aestivum); experiment: Test C preemergence, plant response rating; conditions: Triticum aestivum, pre-emergence, Preemergence
In short: as §2

[15] = test system: pigweed (Amaranthus retroflexus); experiment: Test C preemergence, plant response rating; conditions: Preemergence

O=C(OCCCC(F)(F)F)c1c(Br)cccc1Oc1ncc(Cl)cn1 [Compound 20, 4,4,4-trifluorobutyl 2-bromo-6-[(5-chloro-2-pyrimidinyl)oxy]benzoate]
pest or weed control at 250 g/ha [1]: 30%
plant injury at 250 g/ha (rice (Oryza sativa)): 0%
pest or weed control at 250 g/ha [2]: 40%
pest or weed control at 62 g/ha ([3]; 62 g ai/ha, scale of 0 to 100): 85%
pest or weed control at 125 g/ha ([3]; 125 g ai/ha, scale of 0 to 100): 100%
pest or weed control at 16 g/ha ([3]; 16 g ai/ha, scale 0 to 100): 0%
pest or weed control at 31 g/ha ([3]; 31 g ai/ha, scale 0 to 100): 40%
Corn plant response rating (crop injury, 0 = no effect, 100 = complete kill) at 62 g/ha (corn (Zea mays); 62 g ai/ha, scale of 0 to 100): 0%
Corn plant response rating (crop injury, 0 = no effect, 100 = complete kill) at 125 g/ha (corn (Zea mays); 125 g ai/ha, scale of 0 to 100): 30%
Corn plant response rating (crop injury, 0 = no effect, 100 = complete kill) at 16 g/ha (corn (Zea mays); 16 g ai/ha, scale 0 to 100): 0%
Corn plant response rating (crop injury, 0 = no effect, 100 = complete kill) at 31 g/ha (corn (Zea mays); 31 g ai/ha, scale 0 to 100): 0%
pest or weed control at 62 g/ha ([4]; 62 g ai/ha, scale of 0 to 100): 98%
pest or weed control at 125 g/ha ([4]; 125 g ai/ha, scale of 0 to 100): 100%
pest or weed control at 16 g/ha ([4]; 16 g ai/ha, scale 0 to 100): 5%
pest or weed control at 31 g/ha ([4]; 31 g ai/ha, scale 0 to 100): 50%
pest or weed control at 62 g/ha ([5]; 62 g ai/ha, scale of 0 to 100): 90%
pest or weed control at 125 g/ha ([5]; 125 g ai/ha, scale of 0 to 100): 100%
pest or weed control at 16 g/ha ([5]; 16 g ai/ha, scale 0 to 100): 35%
pest or weed control at 31 g/ha ([5]; 31 g ai/ha, scale 0 to 100): 50%
pest or weed control at 125 g/ha ([6]; 125 g ai/ha, scale of 0 to 100): 90%
pest or weed control at 16 g/ha ([6]; 16 g ai/ha, scale 0 to 100): 0%
pest or weed control at 31 g/ha ([6]; 31 g ai/ha, scale 0 to 100): 5%
pest or weed control at 62 g/ha ([6]; 62 g ai/ha, scale 0 to 100): 10%
pest or weed control at 125 g/ha ([7]; 125 g ai/ha, scale of 0 to 100): 10%
pest or weed control at 16 g/ha ([7]; 16 g ai/ha, scale 0 to 100): 0%
pest or weed control at 31 g/ha ([7]; 31 g ai/ha, scale 0 to 100): 0%
pest or weed control at 62 g/ha ([7]; 62 g ai/ha, scale 0 to 100): 5%
pest or weed control at 125 g/ha ([8]; 125 g ai/ha, scale of 0 to 100): 10%
pest or weed control at 16 g/ha ([8]; 16 g ai/ha, scale 0 to 100): 0%
pest or weed control at 31 g/ha ([8]; 31 g ai/ha, scale 0 to 100): 0%
pest or weed control at 62 g/ha ([8]; 62 g ai/ha, scale 0 to 100): 0%
plant injury at 125 g/ha ([9]; 125 g ai/ha, scale of 0 to 100): 50%
plant injury at 16 g/ha ([9]; 16 g ai/ha, scale 0 to 100): 0%
plant injury at 31 g/ha ([9]; 31 g ai/ha, scale 0 to 100): 0%
plant injury at 62 g/ha ([9]; 62 g ai/ha, scale 0 to 100): 50%
pest or weed control at 125 g/ha ([10]; 125 g ai/ha, scale of 0 to 100): 0%
pest or weed control at 16 g/ha ([10]; 16 g ai/ha, scale 0 to 100): 0%
pest or weed control at 31 g/ha ([10]; 31 g ai/ha, scale 0 to 100): 0%
pest or weed control at 62 g/ha ([10]; 62 g ai/ha, scale 0 to 100): 0%
pest or weed control at 125 g/ha ([11]; 125 g ai/ha, scale of 0 to 100): 70%
pest or weed control at 16 g/ha ([11]; 16 g ai/ha, scale 0 to 100): 0%
pest or weed control at 31 g/ha ([11]; 31 g ai/ha, scale 0 to 100): 0%
pest or weed control at 62 g/ha ([11]; 62 g ai/ha, scale 0 to 100): 30%
plant injury at 125 g/ha (soybean (Glycine max); 125 g ai/ha, scale of 0 to 100): 10%
plant injury at 16 g/ha (soybean (Glycine max); 16 g ai/ha, scale 0 to 100): 0%
plant injury at 31 g/ha (soybean (Glycine max); 31 g ai/ha, scale 0 to 100): 0%
plant injury at 62 g/ha (soybean (Glycine max); 62 g ai/ha, scale 0 to 100): 0%
pest or weed control at 125 g/ha ([12]; 125 g ai/ha, scale of 0 to 100): 50%
pest or weed control at 16 g/ha ([12]; 16 g ai/ha, scale 0 to 100): 0%
pest or weed control at 31 g/ha ([12]; 31 g ai/ha, scale 0 to 100): 0%
pest or weed control at 62 g/ha ([12]; 62 g ai/ha, scale 0 to 100): 5%
pest or weed control at 125 g/ha ([13]; 125 g ai/ha, scale of 0 to 100): 98%
pest or weed control at 16 g/ha ([13]; 16 g ai/ha, scale 0 to 100): 30%
pest or weed control at 31 g/ha ([13]; 31 g ai/ha, scale 0 to 100): 85%
pest or weed control at 62 g/ha ([13]; 62 g ai/ha, scale 0 to 100): 100%
plant injury at 125 g/ha ([14]; 125 g ai/ha, scale of 0 to 100): 5%
plant injury at 16 g/ha ([14]; 16 g ai/ha, scale 0 to 100): 0%
plant injury at 31 g/ha ([14]; 31 g ai/ha, scale 0 to 100): 0%
plant injury at 62 g/ha ([14]; 62 g ai/ha, scale 0 to 100): 0%
Plant response rating, Pigweed ([15]; 125 g ai/ha, scale of 0 to 100): 100
Plant response rating, Pigweed ([15]; 16 g ai/ha, scale 0 to 100): 55
Plant response rating, Pigweed ([15]; 31 g ai/ha, scale 0 to 100): 55
Plant response rating, Pigweed ([15]; 62 g ai/ha, scale 0 to 100): 100
